Data from PMC6148290, “Endogenous metabolites of vitamin E limit inflammation by targeting 5-lipoxygenase” (Nature Communications, 2018).

Legend:
[1] = LCM quantitation in plasma of healthy volunteers (UPLC-MS/MS); set-up: species or system human; details: endogenous; ten healthy volunteers
Procedure: The diversity of LCMs in vivo is poorly investigated and limited to the analysis of plasma[27] and liver. To quantify vitamin E metabolites in plasma and tissues, we developed a sensitive ultraperformance liquid chromatography ESI tandem mass spectrometry (UPLC-MS/MS)-based quantitation method. […] The detection response of α-T-13′-COOH (4a) was linear between 1 and 250 nM (Fig. 2a), with lower limits of detection between 0.5 and 4 nM for ω-carboxylates and 4 and 250 nM for ω-alcohols (Supplementary Table 3).
Human PMNL, monocytes, PBMC, and platelets were freshly isolated from leukocyte concentrates. The protocols for experiments with human blood and blood cells were approved by the ethical commission of the Friedrich-Schiller-University Jena. […]
LCMs were separated on an Acquity UPLC BEH C18 column (1.7 µm, 2.1 × 50 mm, Waters) at a flow rate of 0.8 ml/min at 45 °C: 0 to 4.5 min, gradient from 50% mobile phase A (acetonitrile/water, 10/90, 0.07% formic acid)/50% mobile phase B (acetonitrile, 0.07% formic acid) to 100% B; 4.5 to 5.5 min, isocratic at 100% B. Multiple reaction monitoring was used to detect LCMs in the negative ion mode. […] Collision energies and lower limits of quantitation are listed in Supplementary Table 3.

OVA-sensitized mice = experiment: Airway hyper-reactivity in OVA-sensitized mice; assay type: in vivo, mouse; details: 10 mg/kg i.p. at days 0 and 7; day 21
Procedure: BALB/c mice were sensitized to OVA, and bronchial reactivity and pulmonary LTC4 levels were measured. On days 0 and 7, α-T-13′-COOH (4a; 10 mg/kg, i.p.) or vehicle (4% DMSO in saline; 0.5 ml) were administered 30 min before injection of OVA (100 µg; Sigma Aldrich) which was adsorbed to aluminum hydroxide gel (3.3 mg; Sigma Aldrich). Mice were sacrificed on day 21, and bronchi were collected. Bronchial rings of 1–2 mm length were cut and placed in organ baths mounted to isometric force transducers (Type 7006, AD Instruments, Ugo Basile, Comerio, Italy) and connected to a Powerlab 800 (AD Instruments). Rings were initially stretched until a resting tension of 0.5 g was reached and allowed to equilibrate for at least 30 min. In each experiment, bronchial rings were challenged with carbachol (10^−6 M) until the response was reproducible. Bronchial reactivity was then assessed from a cumulative concentration–response curve to carbachol (1 × 10^−8 − 3 × 10^−5 M). To determine pulmonary LTC4 levels, lungs were isolated and homogenized in PBS pH 7.4 (100 mg tissue/ml) prior to detection of LTC4 by enzyme immunoassay (Cayman Chemicals).

15-LO = 15-LO product formation in A23187/AA-activated PMNL; assay type: cell-based, human; details: at 3 µM; mean ± s.e.m., n = 3; n.i. no inhibition
Procedure: (§1) Cells were washed and medium was exchanged. Freshly isolated PMNL (1 × 10^7) and stably transfected HEK-293 (1 × 10^6) cells were suspended in PBS pH 7.4 containing 1 mg/ml glucose and 1 mM CaCl2. […] A23187- and A23187/AA-treated PMNL and A23187/AA-treated HEK-293 (5-LO_wt), HEK-293 (5-LO_3W) and HEK-293 (5-LO_Arg101Asp) cells produced 135 ± 21, 636 ± 112, 300 ± 59, 133 ± 29, 55 ± 9 ng 5-LO products, respectively. PMNL synthesized 29 ± 6 ng 12-HETE and 97 ± 23 ng 15-HETE when challenged with A23187/AA. 5-LO products from monocytes were analyzed by UPLC-MS/MS.

12-LO = target: T1, 12-LO (Homo sapiens, UniProt P18054); experiment: 12-LO product formation in A23187/AA-activated PMNL; assay type: cell-based
T1 construct: 12-HETE (12-LO product from platelets in PMNL preparations); endogenous in cells; host or cells: platelets contaminating human PMNL preparations
T1 sequence (P18054 1-663): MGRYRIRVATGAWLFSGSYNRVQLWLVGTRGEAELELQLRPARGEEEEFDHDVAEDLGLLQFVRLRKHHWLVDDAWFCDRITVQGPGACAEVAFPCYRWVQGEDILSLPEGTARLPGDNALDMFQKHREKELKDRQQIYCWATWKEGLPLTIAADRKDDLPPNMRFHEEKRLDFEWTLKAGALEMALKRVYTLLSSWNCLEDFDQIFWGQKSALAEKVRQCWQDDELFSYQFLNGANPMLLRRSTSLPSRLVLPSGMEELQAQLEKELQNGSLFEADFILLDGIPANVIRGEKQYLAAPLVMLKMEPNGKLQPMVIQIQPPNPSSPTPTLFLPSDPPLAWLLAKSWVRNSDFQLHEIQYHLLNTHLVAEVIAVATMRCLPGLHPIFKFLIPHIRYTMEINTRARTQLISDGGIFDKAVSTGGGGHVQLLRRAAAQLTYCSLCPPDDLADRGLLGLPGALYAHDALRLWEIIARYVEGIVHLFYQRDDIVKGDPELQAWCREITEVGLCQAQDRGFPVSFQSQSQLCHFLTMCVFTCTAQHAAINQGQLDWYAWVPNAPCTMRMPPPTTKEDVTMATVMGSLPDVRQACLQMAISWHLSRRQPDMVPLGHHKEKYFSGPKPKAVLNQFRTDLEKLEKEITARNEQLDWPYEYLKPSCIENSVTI
Procedure: as §1

For `Cc1c(C)c2c(c(C)c1O)CC[C@@](C)(CCCC(C)CCCC(C)CCCC(C)C(=O)O)O2` (stereo partly drawn) [4a, 13-((2R)-6-hydroxy-2,5,7,8-tetramethylchroman-2-yl)-2,6,10-trimethyltridecanoic acid], the “α-T-13′-COOH (4a) concentration in human plasma” value [1] was 8 to 49 nM, the “OVA-induced bronchial hyper-reactivity to carbachol” value (OVA-sensitized mice) was “significantly inhibited” and the “pulmonary LTC4 levels” value (OVA-sensitized mice) was “lowered pulmonary LTC4 to basal levels”. The “15-LO product formation/PMNL, residual activity” value (15-LO) was 52.6 ± 20.3 % of control, the IC50 (12-LO) was greater than 3 µM and the “12-LO product formation/PMNL, residual activity” value (12-LO; at 3 µM, mean ± s.e.m., n = 3, n.i. no inhibition) was 55.3 ± 1.7 % of control.
